Measured values reported in PMC5218480 (PLoS ONE, 2017).

Tested on: MV-4-11 cells
Experiment: Gene expression microarray analysis (Affymetrix PrimeView) and GSEA
Assay type: cell-based, human
Design: RFU PODN (11730768_x_at) / Fold change /veh PODN (11730768_x_at) / RFU LINC00158 (11744669_a_at) / Fold change /veh LINC00158 (11744669_a_at) / RFU DUSP10 (11751237_a_at) / Fold change /veh DUSP10 (11751237_a_at) / RFU ID3 (11757404_x_at) / Fold change /veh ID3 (11757404_x_at) / RFU PLEKHG5 (11737974_s_at) / Fold change /veh PLEKHG5 (11737974_s_at) / RFU LRRC4B (11730491_at) / Fold change /veh LRRC4B (11730491_at) / RFU GIMAP4 (11747438_a_at) / Fold change /veh GIMAP4 (11747438_a_at) / RFU KRT8 (11758183_x_at) / Fold change /veh KRT8 (11758183_x_at) / RFU CNN1 (11734310_a_at) / Fold change /veh CNN1 (11734310_a_at) / RFU VPS37D (11726825_at) / Fold change /veh VPS37D (11726825_at) / RFU C10orf10 (11716522_x_at) / Fold change /veh C10orf10 (11716522_x_at) / RFU KIR2DL2 /// KIR2DL4 /// KIR2DL5A /// KIR2DL5B /// KIR2DS1 /// KIR2DS2 /// KIR2DS3 /// KIR2DS4 /// KIR3DL3 /// KIR3DL3 /// KIR3DS1 (11738374_at) / Fold change /veh KIR2DL2 /// KIR2DL4 /// KIR2DL5A /// KIR2DL5B /// KIR2DS1 /// KIR2DS2 /// KIR2DS3 /// KIR2DS4 /// KIR3DL3 /// KIR3DL3 /// KIR3DS1 (11738374_at) / RFU C1QL1 (11718748_at) / Fold change /veh C1QL1 (11718748_at) / RFU TMPRSS4 (11747572_a_at) / Fold change /veh TMPRSS4 (11747572_a_at) / RFU HAMP (11756126_x_at) / Fold change /veh HAMP (11756126_x_at) / RFU RNFT2 (11725882_a_at) / Fold change /veh RNFT2 (11725882_a_at) / RFU NR4A2 (11747474_a_at) / Fold change /veh NR4A2 (11747474_a_at) / RFU ABCC12 (11746883_a_at) / Fold change /veh ABCC12 (11746883_a_at) / RFU TMEM136 (11760407_x_at) / Fold change /veh TMEM136 (11760407_x_at) / RFU CLDN22 /// WWC2 (11732394_at) / Fold change /veh CLDN22 /// WWC2 (11732394_at) / RFU HLA-DPB1 (11760878_x_at) / Fold change /veh HLA-DPB1 (11760878_x_at) / RFU SPINT1 (11716480_a_at) / Fold change /veh SPINT1 (11716480_a_at) / RFU GAP43 (11754022_s_at) / Fold change /veh GAP43 (11754022_s_at) / RFU A4GNT (11735810_at) / Fold change /veh A4GNT (11735810_at) / RFU PRB3 (11715151_x_at) / Fold change /veh PRB3 (11715151_x_at) / RFU TUBB4B (11761932_at) / Fold change /veh TUBB4B (11761932_at) / RFU CAPN14 (11732068_a_at) / Fold change /veh CAPN14 (11732068_a_at) / RFU TMCC2 (11721928_a_at) / Fold change /veh TMCC2 (11721928_a_at) / RFU IRGQ (11745062_a_at) / Fold change /veh IRGQ (11745062_a_at) / RFU FAM174B (11720279_a_at) / Fold change /veh FAM174B (11720279_a_at) / RFU TMPRSS4 (11748680_a_at) / Fold change /veh TMPRSS4 (11748680_a_at) / RFU FAM212B (11763350_a_at) / Fold change /veh FAM212B (11763350_a_at) / RFU PLEKHG5 (11743358_a_at) / Fold change /veh PLEKHG5 (11743358_a_at) / RFU ZSCAN30 (11745921_a_at) / Fold change /veh ZSCAN30 (11745921_a_at) / RFU CMKLR1 (11741424_a_at) / Fold change /veh CMKLR1 (11741424_a_at) / RFU LOC101060620 /// MAPK8IP1 (11723275_at) / Fold change /veh LOC101060620 /// MAPK8IP1 (11723275_at) / RFU SPTSSB (11747773_x_at) / Fold change /veh SPTSSB (11747773_x_at) / RFU PRSS12 (11739890_at) / Fold change /veh PRSS12 (11739890_at) / RFU BIN1 (11741810_x_at) / Fold change /veh BIN1 (11741810_x_at) / RFU WNT11 (11732464_a_at) / Fold change /veh WNT11 (11732464_a_at) / RFU C10orf10 (11716521_a_at) / Fold change /veh C10orf10 (11716521_a_at) / RFU C5orf56 (11738089_at) / Fold change /veh C5orf56 (11738089_at) / RFU CYB561 (11721691_x_at) / Fold change /veh CYB561 (11721691_x_at) / RFU ANKRD19P (11752326_a_at) / Fold change /veh ANKRD19P (11752326_a_at) / RFU OR2T12 /// OR2T33 /// OR2T8 (11738714_s_at) / Fold change /veh OR2T12 /// OR2T33 /// OR2T8 (11738714_s_at) / RFU VCAN (11748164_a_at) / Fold change /veh VCAN (11748164_a_at) / RFU JSRP1 (11732532_at) / Fold change /veh JSRP1 (11732532_at) / RFU KRTAP10-11 (11738290_x_at) / Fold change /veh KRTAP10-11 (11738290_x_at) / RFU MYO3A (11730013_a_at) / Fold change /veh MYO3A (11730013_a_at) / RFU EBF3 (11725865_a_at) / Fold change /veh EBF3 (11725865_a_at) / RFU CAMK2N1 (11719241_x_at) / Fold change /veh CAMK2N1 (11719241_x_at) / RFU C5orf56 (11738088_a_at) / Fold change /veh C5orf56 (11738088_a_at) / RFU OLFML3 (11715873_a_at) / Fold change /veh OLFML3 (11715873_a_at) / RFU LOC100653217 /// NTM (11731650_a_at) / Fold change /veh LOC100653217 /// NTM (11731650_a_at) / RFU MAPK11 (11762145_a_at) / Fold change /veh MAPK11 (11762145_a_at) / RFU FIZ1 (11724087_x_at) / Fold change /veh FIZ1 (11724087_x_at) / RFU OASL (11726364_x_at) / Fold change /veh OASL (11726364_x_at) / RFU SOX15 (11748057_x_at) / Fold change /veh SOX15 (11748057_x_at) / RFU CD79A (11719716_a_at) / Fold change /veh CD79A (11719716_a_at) / RFU HIST1H1D (11736915_at) / Fold change /veh HIST1H1D (11736915_at) / RFU CASKIN2 (11723855_a_at) / Fold change /veh CASKIN2 (11723855_a_at) / RFU LOC730098 (11760151_x_at) / Fold change /veh LOC730098 (11760151_x_at) / RFU OR4N2 (11742367_at) / Fold change /veh OR4N2 (11742367_at) / RFU PRRT2 (11749266_a_at) / Fold change /veh PRRT2 (11749266_a_at) / RFU SNX32 (11753110_a_at) / Fold change /veh SNX32 (11753110_a_at) / RFU CDHR5 (11726645_a_at) / Fold change /veh CDHR5 (11726645_a_at) / RFU RCAN1 (11760418_a_at) / Fold change /veh RCAN1 (11760418_a_at) / RFU FAM167A (11723789_a_at) / Fold change /veh FAM167A (11723789_a_at) / RFU FAM26E (11764081_at) / Fold change /veh FAM26E (11764081_at) / RFU ISYNA1 (11749810_s_at) / Fold change /veh ISYNA1 (11749810_s_at) / RFU ACY1 (11761880_at) / Fold change /veh ACY1 (11761880_at) / RFU 11764098_at / Fold change /veh 11764098_at / RFU SAMD14 (11745864_x_at) / Fold change /veh SAMD14 (11745864_x_at) / RFU NPB (11741838_a_at) / Fold change /veh NPB (11741838_a_at) / RFU TMPRSS6 (11731388_a_at) / Fold change /veh TMPRSS6 (11731388_a_at) / RFU KRTAP10-2 (11738614_at) / Fold change /veh KRTAP10-2 (11738614_at) / RFU ARHGAP8 /// PRR5-ARHGAP8 (11727945_x_at) / Fold change /veh ARHGAP8 /// PRR5-ARHGAP8 (11727945_x_at) / RFU KRTAP5-7 /// NADSYN1 (11734609_at) / Fold change /veh KRTAP5-7 /// NADSYN1 (11734609_at) / RFU RASL12 (11751679_a_at) / Fold change /veh RASL12 (11751679_a_at) / RFU CDKN2B (11736163_a_at) / Fold change /veh CDKN2B (11736163_a_at) / RFU PRF1 (11729649_at) / Fold change /veh PRF1 (11729649_at) / RFU, ZNF638 /// ZNF638-IT1 / Fold change vs veh, ZNF638 /// ZNF638-IT1 / RFU, PANK3 / Fold change vs veh, PANK3 / RFU, SH3YL1 / Fold change vs veh, SH3YL1 / RFU, ZEB2 / Fold change vs veh, ZEB2 / RFU, NRIP1 / Fold change vs veh, NRIP1 / RFU, PTTG1IP / Fold change vs veh, PTTG1IP / RFU, CAPN2 / Fold change vs veh, CAPN2 / RFU, MED14 / Fold change vs veh, MED14 / RFU, SNORA58 / Fold change vs veh, SNORA58 / RFU, C1orf63 / Fold change vs veh, C1orf63 / RFU, LRRFIP1 / Fold change vs veh, LRRFIP1 / RFU, NDUFAF7 / Fold change vs veh, NDUFAF7 / RFU, SLC12A2 / Fold change vs veh, SLC12A2 / RFU, IBTK / Fold change vs veh, IBTK / RFU, ESF1 / Fold change vs veh, ESF1 / Fold change vs veh, TMEM50B / RFU, TAOK1 / Fold change vs veh, TAOK1 / RFU, ACBD3 / Fold change vs veh, ACBD3 / RFU, TMA16 / Fold change vs veh, TMA16 / RFU, RWDD3 / Fold change vs veh, RWDD3 / RFU, BCAT1 / Fold change vs veh, BCAT1 / RFU, EDEM3 / Fold change vs veh, EDEM3 / RFU, TMEM33 / Fold change vs veh, TMEM33 / RFU, WDR75 / Fold change vs veh, WDR75 / RFU, AHCTF1 / Fold change vs veh, AHCTF1 / RFU, TFRC / Fold change vs veh, TFRC / RFU, ZDHHC17 / Fold change vs veh, ZDHHC17 / RFU, NOM1 / Fold change vs veh, NOM1 / RFU, ARL8B / Fold change vs veh, ARL8B / RFU, ZBTB11 / Fold change vs veh, ZBTB11 / RFU, TAMM41 / Fold change vs veh, TAMM41 / RFU, KIAA1704 /// LOC100996395 / Fold change vs veh, KIAA1704 /// LOC100996395 / RFU, ING1 / Fold change vs veh, ING1 / RFU, TRMT61B / Fold change vs veh, TRMT61B / RFU, FUBP3 / Fold change vs veh, FUBP3 / RFU, TP53 / Fold change vs veh, TP53 / RFU, TNKS2 / Fold change vs veh, TNKS2 / RFU, ZFP14 / Fold change vs veh, ZFP14 / RFU, ACTR2 / Fold change vs veh, ACTR2 / RFU, PPP3R1 / Fold change vs veh, PPP3R1 / RFU, PIK3R1 / Fold change vs veh, PIK3R1 / RFU, HNRNPA1 / Fold change vs veh, HNRNPA1 / RFU, RNF170 / Fold change vs veh, RNF170 / RFU, ZNF28 / Fold change vs veh, ZNF28 / RFU, RNGTT / Fold change vs veh, RNGTT / RFU, OGT / Fold change vs veh, OGT / RFU, BRD1 / Fold change vs veh, BRD1 / RFU, MARS / Fold change vs veh, MARS / RFU, ZNF655 / Fold change vs veh, ZNF655 / RFU, FAHD1 / Fold change vs veh, FAHD1 / RFU, BDP1 / Fold change vs veh, BDP1 / RFU, LRRCC1 / Fold change vs veh, LRRCC1 / RFU, ARID1A / Fold change vs veh, ARID1A / RFU, ZNF146 / Fold change vs veh, ZNF146 / RFU, ZNF330 / Fold change vs veh, ZNF330 / RFU, GPN3 / Fold change vs veh, GPN3 / RFU, C9orf123 / Fold change vs veh, C9orf123 / RFU, N4BP2L2 / Fold change vs veh, N4BP2L2 / RFU, ARFIP1 / Fold change vs veh, ARFIP1 / RFU, FAM179B / Fold change vs veh, FAM179B / RFU, BCL10 / Fold change vs veh, BCL10 / RFU, UHRF1BP1L / Fold change vs veh, UHRF1BP1L / RFU, BET1 / Fold change vs veh, BET1 / RFU, CNOT2 / Fold change vs veh, CNOT2 / RFU, ZNF268 / Fold change vs veh, ZNF268 / Fold change vs veh, ZNF507 / RFU, DGCR2 / Fold change vs veh, DGCR2 / RFU, WDSUB1 / Fold change vs veh, WDSUB1 / Fold change vs veh, HSP90B1 /// MIR3652 / RFU, ADSS / Fold change vs veh, ADSS / RFU, GK / Fold change vs veh, GK / RFU, ZNF148 / Fold change vs veh, ZNF148 / RFU, TAF9 / Fold change vs veh, TAF9 / RFU, SLC1A5 / Fold change vs veh, SLC1A5 / RFU, SLMO2 / Fold change vs veh, SLMO2 / RFU, ABCC4 / Fold change vs veh, ABCC4 / RFU, LOC101060439 /// RAP1B / Fold change vs veh, LOC101060439 /// RAP1B / RFU, RFX7 / Fold change vs veh, RFX7 / RFU, GTPBP10 / Fold change vs veh, GTPBP10 / RFU, CNEP1R1 / Fold change vs veh, CNEP1R1 / RFU, BIVM-ERCC5 /// ERCC5 / Fold change vs veh, BIVM-ERCC5 /// ERCC5 / RFU, ILF3 / Fold change vs veh, ILF3 / RFU 11762660_at / Fold change /veh 11762660_at / RFU VCAN (11757783_s_at) / Fold change /veh VCAN (11757783_s_at) / RFU DDX43 (11728927_at) / Fold change /veh DDX43 (11728927_at) / RFU KRT8 (11758188_x_at) / Fold change /veh KRT8 (11758188_x_at) / RFU NKD1 (11759106_at) / Fold change /veh NKD1 (11759106_at) / RFU SRD5A1 (11742802_a_at) / Fold change /veh SRD5A1 (11742802_a_at) / RFU TPSAB1 /// TPSB2 (11721975_s_at) / Fold change /veh TPSAB1 /// TPSB2 (11721975_s_at) / RFU GSTM3 (11746129_a_at) / Fold change /veh GSTM3 (11746129_a_at) / RFU IL23R (11737362_x_at) / Fold change /veh IL23R (11737362_x_at) / RFU TMEM51 (11727254_a_at) / Fold change /veh TMEM51 (11727254_a_at) / RFU PIWIL2 (11732686_x_at) / Fold change /veh PIWIL2 (11732686_x_at) / RFU ORM1 (11744905_x_at) / Fold change /veh ORM1 (11744905_x_at) / RFU CCDC152 (11743942_at) / Fold change /veh CCDC152 (11743942_at) / RFU ECM1 (11717891_a_at) / Fold change /veh ECM1 (11717891_a_at) / RFU IL23R (11748794_a_at) / Fold change /veh IL23R (11748794_a_at) / RFU TNFAIP8L3 (11732012_x_at) / Fold change /veh TNFAIP8L3 (11732012_x_at) / RFU MBOAT4 (11741988_at) / Fold change /veh MBOAT4 (11741988_at) / RFU 11764193_at / Fold change /veh 11764193_at / RFU TMEM53 (11763286_at) / Fold change /veh TMEM53 (11763286_at) / RFU MAGEB2 (11727129_at) / Fold change /veh MAGEB2 (11727129_at) / RFU TMEM200A (11744735_a_at) / Fold change /veh TMEM200A (11744735_a_at) / RFU CCDC152 (11751479_a_at) / Fold change /veh CCDC152 (11751479_a_at) / RFU FAM211A (11726209_a_at) / Fold change /veh FAM211A (11726209_a_at) / RFU RGS16 (11746705_a_at) / Fold change /veh RGS16 (11746705_a_at) / RFU VCAN (11755009_s_at) / Fold change /veh VCAN (11755009_s_at) / RFU RHOB (11743442_s_at) / Fold change /veh RHOB (11743442_s_at) / RFU RGS16 (11720943_a_at) / Fold change /veh RGS16 (11720943_a_at) / RFU RGS16 (11720944_at) / Fold change /veh RGS16 (11720944_at) / RFU, VPS4B / Fold change vs veh, VPS4B / RFU, CREB1 / Fold change vs veh, CREB1 / RFU, DNAJC13 / Fold change vs veh, DNAJC13 / RFU, GNAQ / Fold change vs veh, GNAQ / RFU, CDK5R1 / Fold change vs veh, CDK5R1 / RFU, ZRANB3 / Fold change vs veh, ZRANB3 / RFU, CUL4A / Fold change vs veh, CUL4A / RFU, CCNY / Fold change vs veh, CCNY / RFU, UFL1 / Fold change vs veh, UFL1 / RFU, COG3 / Fold change vs veh, COG3 / RFU, DIAPH2 / Fold change vs veh, DIAPH2 / RFU, SKA2 / Fold change vs veh, SKA2 / RFU, AFF3 / Fold change vs veh, AFF3 / RFU, LMF1 / Fold change vs veh, LMF1 / RFU, IPO11 / Fold change vs veh, IPO11 / RFU, DFFB / Fold change vs veh, DFFB / RFU, FOXP1 / Fold change vs veh, FOXP1 / RFU, CARD8 / Fold change vs veh, CARD8 / RFU, STRN3 / Fold change vs veh, STRN3 / RFU, ADK / Fold change vs veh, ADK / RFU, RASSF2 / Fold change vs veh, RASSF2 / RFU, WIPF1 / Fold change vs veh, WIPF1 / RFU, LARP1B / Fold change vs veh, LARP1B / RFU, RASA1 / Fold change vs veh, RASA1 / RFU, RB1 / Fold change vs veh, RB1 / RFU, PPFIA1 / Fold change vs veh, PPFIA1 / RFU, MAT2A / Fold change vs veh, MAT2A / RFU, CCT5 / Fold change vs veh, CCT5 / RFU, WDR92 / Fold change vs veh, WDR92 / RFU, CUX1 / Fold change vs veh, CUX1 / RFU, TTC7A / Fold change vs veh, TTC7A / RFU, TMEM135 / Fold change vs veh, TMEM135 / RFU, DEPTOR / Fold change vs veh, DEPTOR / RFU, CPM / Fold change vs veh, CPM / RFU, DNAJB6 / Fold change vs veh, DNAJB6 / RFU, CACNA2D3 / Fold change vs veh, CACNA2D3 / RFU, DTX4 / Fold change vs veh, DTX4 / RFU, TFCP2 / Fold change vs veh, TFCP2 / RFU, GMCL1 /// GMCL1P1 / Fold change vs veh, GMCL1 /// GMCL1P1 / RFU, AEBP2 / Fold change vs veh, AEBP2 / RFU, SNHG1 /// SNORD22 /// SNORD25 /// SNORD26 /// SNORD27 /// SNORD28 /// SNORD29 /// SNORD31 / Fold change vs veh, SNHG1 /// SNORD22 /// SNORD25 /// SNORD26 /// SNORD27 /// SNORD28 /// SNORD29 /// SNORD31 / Fold change (Aza/veh), C12orf56 (ProbeSet 11735607_a_at) / Fold change (ACY-1035/veh), C12orf56 (ProbeSet 11735607_a_at) / Fold change (Aza/veh), FGFR1OP (ProbeSet 11751329_s_at) / Fold change (ACY-1035/veh), FGFR1OP (ProbeSet 11751329_s_at) / Fold change (Aza/veh), VPS36 (ProbeSet 11739960_a_at) / Fold change (ACY-1035/veh), VPS36 (ProbeSet 11739960_a_at) / RFU SYPL1 (11715823_x_at) / Fold change /veh SYPL1 (11715823_x_at) / RFU IGFBP7 (11715501_s_at) / Fold change /veh IGFBP7 (11715501_s_at) / RFU REEP3 (11722064_at) / Fold change /veh REEP3 (11722064_at) / RFU IGLL1 (11728026_x_at) / Fold change /veh IGLL1 (11728026_x_at): dose or concentration left out as unconfirmed
Settings: MV-4-11 cells, 48 hours

Q: With `Nc1ncn([C@@H]2O[C@H](CO)[C@@H](O)[C@H]2O)c(=O)n1` [azacitidine] as the compound, how does the “RFU C5orf56 (11738089_at)” value read?
A: 11.14 RFU
